Measurements reported in patent US10426768B2, “Subcutaneous delivery of polymer conjugates of therapeutic agents” (Serina Therapeutics, Inc., priority 2011, dated 2019).
Read-outs that look alike come from different tables or passages of the source.

Experiments:
[1] = man; cited from earlier work
6-OHDA Rat Model [2] = test: Forelimb asymmetry (cylinder) test in the 6-OHDA rat model, single subcutaneous dose; format: in vivo, female Sprague-Dawley rats
Protocol: (§1) In order to study the efficacy of the POZ conjugates described herein, in vivo studies were conducted with female Sprague-Dawley rats. Female Sprague-Dawley rats (275-350 g) were used in the study. Each animal underwent stereotaxic surgery and received a unilateral lesion of the right nigrostriatal pathway via injection of 12.5 μg of 6-hydroxydopamine (6-OHDA) into a single site in the medial forebrain bundle. Rats were monitored over two weeks and underwent behavioral assessment (on day −7) via the cylinder test. Animals lacking overt behavioral asymmetry ([…] ipsilateral forelimb use) were excluded from the study. The rats were them randomly assigned to one of six treatment groups (each N=8). […] The rats received a single subcutaneous dose (2 mL/kg) of vehicle (5% dextrose) or test compound dissolved in 5% dextrose.
(§2) Each group of animals (A-F as described above) were independently assessed rat for rotational behavior and forelimb symmetry on day 1, day 2, day 5 and day 9. In the rotational test, the animals were placed in an automated rotometer apparatus (MedAssociates, USA) and the net number of rotations contraversive to the lesion were recorded over a period of 6 hours on each day. In the forelimb symmetry test, the rats are placed in a clear glass cylinder without top (15 cm diameter×45 cm tall). The number of times each paw touches the side of the cylinder during an individual rear is recorded over a 10 minute observation on each day. The first limb in any rear to touch the wall is scored a single point. If both limbs contact within 0.4 s of each other, then this is scored as a ‘both’. All subsequent exploratory movements about the wall using that limb are scored independently until the other limb contacts the wall with weight support. Alternating stepping motions involving both paws one after the other receive a single score for both. The net number of contralateral touches are calculated and considered a favorable response.

6-OHDA Rat Model [3] = test: Rotational test in the 6-OHDA rat model, single subcutaneous dose; format: in vivo, female Sprague-Dawley rats
Protocol: as §1, §2

[4] = rats; cited from earlier work
[5] = Pharmacokinetics of rotigotine in rat after intravenous and subcutaneous administration of POZ conjugates; format: in vivo, male Sprague-Dawley rats; conditions: for PK profile of plasma rotigotine, in words / Cmax values of plasma rotigotine: rat; for PK profile of plasma rotigotine, in words: SC compared with IV; for Cmax values of plasma rotigotine: at 12 hours, dosed SC at 1.6 mg/kg
Protocol: In order to study the pharmacokinetics of the POZ conjugates described herein, in vivo studies were conducted with male Sprague-Dawley rats. Twenty-seven male cannulated Sprague-Dawley rats (300-350 g) were divided into nine groups of 3 animals per group. Groups I-II received a single subcutaneous (SC) dose (right flank) of POZ acetyl rotigotine (as described in Example 6) at equivalent doses of 1.6 and 6.4 mg/kg. […] Group V received a single subcutaneous (SC) dose (right flank) of rotigotine hydrochloride at an equivalent dose of 0.5 mg/kg. Groups VI-VII received a single intravenous (IV) dose (lateral tail vein) of POZ acetyl rotigotine (as described in Example 6) at equivalent doses of 0.5 and 2.0 mg/kg. […] The test articles were dissolved in 5% dextrose injection and filtered prior to each injection. Serial blood samples were obtained from each intravenously dosed animal through the cannulated catheter, at time intervals of end of injection, 12, 24, 48, 96 and 168 hours. The time intervals for the subcutaneously dosed animals were 6, 12, 24, 48, 96 and 168 hours. The blood was processed to collect the plasma which was stored at −70° C. before analysis. The plasma samples were extracted with acetonitrile using d3-rotigotine as an internal standard and the analytes in the extract were assayed by chromatographic analysis on LC/MS-MS system using a C-18 reverse phase column with 0.9 um silica coreshell (Accucore™, Thermo Scientific, 30×2.1 mm ID and 2.6 micron particle size). The mobile phase was ammonium formate 10 mM pH3.0 (solvent A); and 90% acetonitrile, 10% methanol, and 0.1% formic acid (solvent B), eluting at 0.6 mL/min.

[6] = oral; cited from earlier work
[7] = Water solubility of the produced polyoxazoline conjugate; format: physicochemical
[8] = Pharmacokinetics of rotigotine in monkey after subcutaneous administration of POZ conjugates; format: in vivo, female macaques (Cynomolgus monkeys); conditions: for average terminal plasma half-life (t½) of rotigotine: one subcutaneous dose, 1.5 or 4.5 mg/kg rotigotine equivalents
Protocol: The pharmacokinetics of the POZ conjugates of rotigotine was measured in normal, treatment-naïve female macaques. Animals were randomly assigned into four treatment groups, each N=3. […] The test articles were dissolved in 5% dextrose injection and filtered prior to each injection. Serial venous blood samples were obtained from each animal prior to administration of experimental agents on Day 1 and subsequently at 15 min, 30 min, 1 h, 2 h, 4 h, 6 h, 8 h, 24 h, 48 h, 96 h, 192 h, 240 h and 336 h. The blood was processed to collect the plasma which was stored at −70° C. before analysis. These plasma samples were processed and assayed by chromatographic analysis on LC/MS-MS system as described in Example 31.

Row | Molecule | Net ipsiversive forelimb use as a percentage of total forelimb use (Average ± SEM; n = 8) (6-OHDA Rat Model [2]; 1.6 mg/kg SC, Day 2) [%] | Net ipsiversive forelimb use as a percentage of total forelimb use (Average ± SEM; n = 8) (6-OHDA Rat Model [2]; 1.6 mg/kg SC, Day 5) [%] | Net number of contraversive turns/6 h period (Average ± SEM; n = 8) (6-OHDA Rat Model [3]; 1.6 mg/kg SC, Day 1) [turns/6 h period] | Net number of contraversive turns/6 h period (Average ± SEM; n = 8) (6-OHDA Rat Model [3]; 1.6 mg/kg SC, Day 5) [turns/6 h period] | water solubility, in words [7] | terminal plasma half-life (t½) of rotigotine ([5]; rat plasma, IV or SC dosing) [h] | PK profile of plasma rotigotine, in words [5] | Cmax values of plasma rotigotine [5] [ng/mL] | average terminal plasma half-life (t½) of rotigotine [8] [h] | also measured
1 | CCCN(CCc1cccs1)[C@H]1CCc2c(O)cccc2C1 [Rotigotine, S(−)-2-(N-propyl-N-2-thienylethylamino)-5-hydroxytetralin, reference compound] | – | – | – | – | – | – | – | – | – | half-life [1]: 2.5 h; Net ipsiversive forelimb use as a percentage of total forelimb use (Average ± SEM; n = 8) (6-OHDA Rat Model [2]; 0.5 mg/kg SC, Day 2): 60 ± 13%; Net ipsiversive forelimb use as a percentage of total forelimb use (Average ± SEM; n = 8) (6-OHDA Rat Model [2]; 0.5 mg/kg SC, Day 5): 94 ± 6%; Net ipsiversive forelimb use as a percentage of total forelimb use (Average ± SEM; n = 8) (6-OHDA Rat Model [2]; 3.0 mg/kg SC, Day 2): 9 ± 13%; Net ipsiversive forelimb use as a percentage of total forelimb use (Average ± SEM; n = 8) (6-OHDA Rat Model [2]; 3.0 mg/kg SC, Day 5): 85 ± 8%; Net number of contraversive turns/6 h period (Average ± SEM; n = 8) (6-OHDA Rat Model [3]; 0.5 mg/kg SC, Day 1): 983 ± 405 turns/6 h period; Net number of contraversive turns/6 h period (Average ± SEM; n = 8) (6-OHDA Rat Model [3]; 0.5 mg/kg SC, Day 5): −49 ± 9 turns/6 h period; Net number of contraversive turns/6 h period (Average ± SEM; n = 8) (6-OHDA Rat Model [3]; 3.0 mg/kg SC, Day 1): 1570 ± 312 turns/6 h period; Net number of contraversive turns/6 h period (Average ± SEM; n = 8) (6-OHDA Rat Model [3]; 3.0 mg/kg SC, Day 5): −39 ± 15 turns/6 h period; oral and intraperitoneal bioavailability [4]: less than 10%; half-life ([5]; male, Sprague-Dawley, subcutaneous, 0.5 mg/kg, rat plasma, IV or SC dosing, read-out: terminal plasma half-life (t½) of rotigotine (converted)): 2.8 h
2 | N[C@@H](Cc1ccc(O)c(O)c1)C(=O)O [levodopa] | – | – | – | – | – | – | – | – | – | bioavailability [6]: less than 10%
3 | H-[(Acetyl-Rotigotine)10(EOZ)190]—COOH 20K [POZ acetyl rotigotine] | 50 ± 13 | 85 ± 10 | 872 ± 232 | −14 ± 14 | good water solubility | 16 | essentially the same PK profile when delivered either SC or IV | 48 | – | –
4 | H-[(Propionyl-Rotigotine)10(EOZ)190]—COOH 20K [POZ propyl rotigotine] | 0 ± 14 | 31 ± 13 | 1408 ± 286 | 68 ± 60 | good water solubility | 60 | markedly prolonged PK profile that is near “zero order” kinetics | 6 | 60 | Net ipsiversive forelimb use as a percentage of total forelimb use (Average ± SEM; n = 8) (6-OHDA Rat Model [2]; 6.4 mg/kg SC, Day 2): −2 ± 26%; Net ipsiversive forelimb use as a percentage of total forelimb use (Average ± SEM; n = 8) (6-OHDA Rat Model [2]; 6.4 mg/kg SC, Day 5): −6 ± 16%; forelimb use activity, in words (6-OHDA Rat Model [2]; day 5, both doses of 1.6 and 6.4 mg/kg): marked and continuous ipsiversive forelimb use; Net number of contraversive turns/6 h period (Average ± SEM; n = 8) (6-OHDA Rat Model [3]; 6.4 mg/kg SC, Day 1): 1272 ± 405 turns/6 h period; Net number of contraversive turns/6 h period (Average ± SEM; n = 8) (6-OHDA Rat Model [3]; 6.4 mg/kg SC, Day 5): 5142 ± 777 turns/6 h period; rotational activity, in words (6-OHDA Rat Model [3]; day 5, high dose of 6.4 mg/kg): marked and continuous contraversive rotations; PK profile of plasma rotigotine, in words ([8]; subcutaneous): markedly prolonged PK profile that is near “zero order” kinetics
5 | H-[(α-Methyl-Acetyl-Rotigotine)10(EOZ)190]—COOH 20K [POZ alpha methyl acetyl rotigotine] | – | – | – | – | good water solubility | – | – | – | 9 | –
